From patent publication US6716603B2, “Nucleic acids encoding a chloride channel protein” (Genaera Corporation, priority 1998, dated 2004) come the findings set out here.

The test system of one assay is IL-9 induced eotaxin. Description: IL-9 induced eotaxin production in murine primary lung cultures (eotaxin ELISA). The format is cell-based, mouse. The following applies: 100 μM channel blocker, FVB primary lung cultures with mIL-9, FIG. 18. The text has this: IL-9 is known to induce eotaxin from lung epithelial cells (Dong, et.al., submitted for publication, Eur. J. Immunol.). In situ expression analysis of IL-9 transgenic mice found ICACC-1 expression to be predominant in airway epithelial cells. These epithelial cells also produce eotaxin, and eotaxin can be induced by IL-9 in these cells as well as primary lung cultures from a variety of different mouse strains. Because eotaxin and ICACC-1 are both induced by IL-9 in lung epithelial cells, it is possible that inhibiting ICACC-1 can inhibit eotaxin or other cytokines such as IL-4 or IL-13 (Doucet et al., J. Clin. Invest. 101:2129-2139, 1998.) that induce eotaxin production in lung epithelial cells. To test this hypothesis, we employed a murine primary lung assays, where lung cells were harvested from FVB/NJ mice as described in Example 5A and processed for in vitro analysis as described in Example 6 for human primary lung culture. Cells were incubated with or without 20 ng/ml recombinant mIL-9 for 48 hours. After 48 hours, conditioned supernatant was collected and analyzed for murine eotaxin production using an eotaxin ELISA kit (R&D Systems). Recombinant murine eotaxin was used to generate a standard curve. […] A culture derived from IL-9 transgenic mouse lung (TG5 lane) was used as a positive control. […]
(In an ELISA, binding on a coated surface is turned into a signal by an enzyme label.)

For a further assay, the system named is ICACC-1. Description: ICACC-1 RNA expression in lung after intratracheal IL-9 (RT-PCR). The format is in vivo, mouse. Conditions: C57B6 mice, 50 μl of 0.1 mg/ml IL-9 intratracheal daily for ten days, FIG. 8. As for the experimental part: Message was analyzed by PCR as described (Nicolaides et al., 1995) and via Northern blot. Primers used to generate murine ICACC-1 message were; sense 5′-[…]-3′ (SEQ ID NO:7) (nucleotides 689-712) and antisense 5′-[…]-3′ (SEQ ID NO:8) (nucleotides 1041-1064) which produce a gene product of 376 bp. DHFR was assayed as an internal control to measure for cDNA integrity using primers previously described (Nicolaides et al., 1991). Amplification conditions used were 95° C. for 30 seconds, 58° C. for 1.5 minutes and 72° C. for 1.5 minutes for 35 cycles. For Northern blot analysis, total RNA derived from Tg5 or FVB lungs was electrophoresed on 1.5% formaldehyde gels, transferred to nylon membranes and probed with a DNA fragment comprising the murine ICACC-1 cDNA.
To confirm that the expression of IL-9 was critically related to the expression of ICACC-1 and to control for genetic background specifically, recombinant murine IL-9 was introduced into the lung of murine strain C57B6. Recombinant IL-9 was instilled into the trachea of anesthetized mice by addition of 50 μl of a 0.1 mg/ml IL-9 solution or vehicle alone (0.1% bovine serum albumin) daily for ten days. […]
Expression of ICACC-1 RNA was measured as described in Example 3.

Molecule `CC(=O)Nc1ccc(C=Cc2ccc(N=C=S)cc2S(=O)(=O)O)c(S(=O)(=O)O)c1` [SITS] gave an eotaxin production inhibited with IL-9 induced eotaxin of 41%. Same read-out and setting: in the case of `O=S(=O)(O)c1cc(N=C=S)ccc1C=Cc1ccc(N=C=S)cc1S(=O)(=O)O` [DIDS] it was 33%.

B1: mIL-9: recombinant murine IL-9 (protein, UniProt P15247 19-144, looked up)
Interleukin-9: QRCSTTWGIRDTNYLIENLKDDPPSKCSCSGNVTSCLCLSVPTDDCTTPCYREGLLQLTNATQKSRLLPVFHRVKRIVEVLKNITCPSFSCEKPCNQTMAGNTLSFLKSLLGTFQKTEMQRQKSRP
With B1, the “ICACC-1 RNA expression in lung (RT-PCR)” value with ICACC-1 is on record as “expression increased”.
